# According to patent publication US5869081A, “Progesterone vaginal ring for treatment of infertility” (priority 1996, dated 1999):
# How the values were obtained:
# [1] = oral administration; rapid clearance by the liver; cited from earlier work
# [2] = tested on: rat embryos at the two cell stage; conditions: cultured in vitro in the presence vs absence of hormone; cited from earlier work
# [3] = tested on: normogonadal women undergoing IVF-ET; assay: clinical pregnancy rate in IVF-ET (Example IV); format: in vivo, human; conditions: daily i.m. injection of 50 mg, 10/26
# Description: Forty-nine normogonadal women undergoing IVF-ET were randomly assigned to receive a progesterone containing vaginal ring having an in vitro release rate of 10 mg per day (n=23) or a daily intramuscular (i.m.) injection of 50 mg progesterone (n=26). In order to induce multiple follicle growth, subjects received a sequential treatment with a gonadotropin releasing hormone (GnRH) agonist, human menopausal gonadotropin (hMG) and human […] gonadotropin (hCG). Oocytes were aspirated thirty-six hours after administering hCG, and treatment with progesterone, either i.m. or by vaginal ring, began at this time. Progesterone treatment continued for a maximum of seven weeks.
# [4] = human, in vivo
# endometrium = assay: histology / dating of endometrial biopsies (Example I); format: in vivo, human
# Description: Endometrial biopsies were performed with an endometrial suction curette (Z-Sampler, California) on day +3 in six patients. Three patients using the 10 mg vaginal ring had endometrial biopsies repeated on day +7. […] Steril. 1:3-25 was used for assessing the day of the menstrual cycle. Endometrial tissue was processed routinely to obtain hematoxylin and eosin stained sections. These were coded and examined by the same pathologist, who was blinded for the hormone replacement therapy of each patient.
# [5] = tested on: functionally agonadal women; assay: clinical pregnancy and nidation rates in an oocyte donation cycle (Example III); format: in vivo, human
# Description: Seventeen functionally agonadal women used a progesterone containing vaginal ring having an in vitro release rate of 10 mg per day as the only source of progesterone during an oocyte donation cycle. When pregnancy was documented on day 12 after embryo transfer, the 10 mg ring was replaced by a vaginal ring having an in vitro release rate of 15 mg, which was left in place until the twelfth week of pregnancy. In the same period of time eighteen other women received daily i.m. injections of 100 mg progesterone. The decision to use one or the other route of administration was not randomized.
smiles,measurement,setting,value
CC(=O)[C@H]1CC[C@H]2[C@@H]3CCC4=CC(=O)CC[C@]4(C)[C@H]3CC[C@]12C [progesterone],bioavailability in the circulation,[1],low bioavailability
same,development to the blastocyst stage,[2],better development to the blastocyst stage
same,clinical pregnancy rate,[3],38.4%
same,systemic side effects,[4],no systemic side effects
same,circulatory progesterone level with adequate biological effect on the endometrium,endometrium; intravaginal delivery,12-15 nmol/L
same,advanced endometrial pattern,endometrium; women supplemented with intramuscular progesterone,did not exhibit this advanced pattern
same,clinical pregnancy rate,"[5]; daily i.m. injections of 100 mg, eighteen women",38.9%
same,nidation rate (total number of gestational sacs/total number of embryos transferred),"[5]; i.m. progesterone 100 mg daily, 9/66",13.6%
